# Measurements reported in article PMC5469811, “Identification of GXXXXG motif in Chrysophsin-1 and its implication in the design of analogs with cell-selective antimicrobial and anti-endotoxin activities” (Scientific Reports, 2017).
# Residues, ends and D or L forms follow the SMILES beside them.
# Assays:
# [1] = tested on: S. aureus (ATCC 25923); type: cell-based, Staphylococcus aureus; conditions: ATCC 25923, 1 h
# [2] = tested on: BALB/c mice challenged with lethal dose of LPS; assay: Anti-LPS survival assay; type: in vivo, mouse; conditions: LPS 15 mgKg−1 i.p. plus peptide single dose 5 mgKg−1, 7 days, five mice per group, LPS-only mice all died within 24 h
# Procedure: (§1) For survival assay, mice were challenged intraperitoneally with LPS at a lethal dose of 15 mgKg^−1 E. coli 0111:B4[5]. Control mice were injected with an equal volume of PBS. G13P-Chr-1 at a single dose of 5 mgKg^−1 was injected in the mice groups that were already administered with 15 mgKg^−1 of LPS. Each group contained five mice. The mortality of mice was monitored up to 7 days and weight change was monitored every day. The peptide G13P-Chr-1 only was also injected in two groups of mice at 5 mgKg^−1 and 10 mgKg^−1 to check any mortality in mice by peptide only treatment.
# [3] = tested on: TNF-α in serum of BALB/c mice injected with E. coli ATCC 25922; assay: In vivo TNF-α production after E. coli infection; conditions: BALB/c mice injected with mid-logarithmic phase E. coli ATCC 25922; two hours post infection; ELISA; versus untreated group
# Procedure: Serum was isolated from the blood obtained by bleeding the mice retro-orbitally two hours post infection and ELISA was performed to determine the amount of TNF-α produced in the untreated group and the peptide-treated group.
# [4] = tested on: E. coli (ATCC 25922); type: cell-based, Escherichia coli; conditions: ATCC 25922, 1 h
# Outline: (§2)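 E. coli ATCC 25922 at 10^6 CFU/ml in MH broth with physiological divalent and monovalent salts was exposed to serial peptide dilutions, 18 h shaking at 37 °C, and MIC read. Variants: peptides preheated 1 h at 4, 60 or 90 °C, or assay diluent with 10% fetal bovine serum, 0.4% BSA, 0.02% acetic acid.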
# [5] = tested on: E. coli ATCC 25922; type: cell-based, Escherichia coli; conditions: ATCC 25922, 18 h
# Outline: as §2
# [6] = tested on: Candida parapsilosis (ATCC 22019); assay: microbe, parasite or virus in culture; type: cell-based; conditions: ATCC 22019, 48 h; read-out: Minimum inhibitory concentration (MIC)
# Procedure: (§3) The anti- fungal activity of peptides was performed according to the standard micro broth dilution technique as per NCCLS guidelines. These plates were incubated in a moist chamber at 35 °C, and an absorbance at 492 nm was recorded on a VersaMax microplate reader after 48 h for C. albicans ATCC 10231 and C. parapsilosis ATCC 22019 and 72 h for C. neoformans.
# [7] = tested on: Cryptococcus neoformans; assay: microbe, parasite or virus in culture; type: cell-based; conditions: 72 h; read-out: Minimum inhibitory concentration (MIC)
# Procedure: as §3
# [8] = tested on: Candida albicans (ATCC 10231); assay: microbe, parasite or virus in culture; type: cell-based; conditions: ATCC 10231, 48 h; read-out: Minimum inhibitory concentration (MIC)
# Procedure: as §3
# [9] = tested on: BALB/c mice; assay: In vivo toxicity of peptide alone; design: species or system mouse; conditions: peptide alone 5 and 10 mgKg−1 i.p., seven days, five animals
# Procedure: as §1
# [10] = tested on: LPS-induced TNF-α, IL-6 and IFN-γ in serum of BALB/c mice; assay: In vivo inhibition of LPS mediated cytokine production; design: species or system mouse; conditions: LPS 10 mgKg−1 plus peptide 3 mgKg−1, 1, 2, 4, 6 h, ELISA, versus LPS only
# Procedure: Enzyme-linked immunosorbent assays (ELISAs) were carried out to estimate the amount of tumor necrosis factor alpha (TNF-α) and interleukin-1β (IL-1β) secreted by LPS-treated THP-1 cells in the presence of peptides after 4–6 h of incubation. The levels of these cytokines in the culture supernatant of untreated and LPS-treated cells were taken as the negative and positive respectively, to calculate the percent inhibition by the peptides. For RANTES estimation the peptide LPS incubation was kept up to 24 h. The experiments were repeated twice reported as percentage inhibition. The absorbance of LPS treated cell supernatant was taken as zero inhibition. Similar ELISAs were performed to estimate the amount of TNF-α IL-6 and IFN-γ secreted by BALB/c mouse blood, which was collected from the orbital sinus at different time points post LPS injection, by using enzyme-linked immunosorbent assay kits for mouse TNF-α (BD Biosciences), IL-6 (BD Biosciences) and IFN-γ (BD Biosciences).
# All the mice were divided into three experimental groups. Except the control group which was injected with PBS only, the other two groups were challenged with E. coli O111: B4 LPS at 10 mgkg^−1 of body weight in the presence and in the absence of 3 mgkg^−1 peptide. Blood was collected 1, 2, 4 and 6 h post LPS and peptide injection by the retro-orbital bleeding of mice. […]
# [11] = tested on: Klebsiella pneumoniae (ATCC 27736); assay: microbe, parasite or virus in culture; type: cell-based; conditions: ATCC 27736; read-out: Minimum inhibitory concentration (MIC)
# Outline: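 Values are averages of three independent MIC determinations. Each came from a two-fold serial dilution series of compound against every strain.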
# [12] = tested on: Sporothrix schenckii (Patient isolates); assay: microbe, parasite or virus in culture; type: cell-based; conditions: 48 h; read-out: Minimum inhibitory concentration (MIC)
# [13] = tested on: E. coli ATCC 25922; assay: Synergy with conventional antibiotics, checkerboard titration; type: cell-based, Escherichia coli
# Outline: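 Checkerboard of 2-fold serial dilutions of peptide and antibiotic combined with log-phase bacteria, incubated 24 h at 37 °C. FIC index computed from combination versus single-agent MICs: <0.5 synergy, 0.5–1.0 additive, 1.0–4.0 indifferent, >4.0 antagonism.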
smiles,measurement,setting,value
CC[C@H](C)[C@H](NC(=O)[C@H](C)NC(=O)[C@H](CCCCN)NC(=O)[C@@H]1CCCN1C(=O)[C@H](C)NC(=O)[C@H](Cc1c[nH]cn1)NC(=O)[C@@H](NC(=O)[C@H](C)NC(=O)CNC(=O)[C@H](CCCCN)NC(=O)[C@@H](NC(=O)[C@H](CC(C)C)NC(=O)[C@H](Cc1c[nH]c2ccccc12)NC(=O)CNC(=O)[C@H](Cc1ccccc1)NC(=O)[C@@H](N)Cc1ccccc1)[C@@H](C)CC)[C@@H](C)CC)C(=O)N[C@@H](Cc1c[nH]cn1)C(=O)NCC(=O)N[C@@H](CC(C)C)C(=O)N[C@H](C(=O)N[C@@H](Cc1c[nH]cn1)C(=O)N[C@@H](CCCNC(=N)N)C(=O)N[C@@H](CCCNC(=N)N)C(=O)N[C@@H](CCCNC(=N)N)C(=O)N[C@@H](Cc1c[nH]cn1)C(N)=O)[C@@H](C)CC [Peptide G13P-Chr-1] (H-FFGWLIKGAIHAPKAIHGLIHRRRH-NH2),Antibacterial activity (MIC) after incubating peptide at 4 °C,[1],3 µM
same,Antibacterial activity (MIC) after incubating peptide at 60 °C,[1],13 µM
same,Antibacterial activity (MIC) after incubating peptide at 90 °C,[1],17.3 µM
same,survival of mice,[2],40%
same,TNF-α production in serum,[3],significant reduction
same,Antibacterial activity (MIC) after incubating peptide at 4 °C,[4],5 µM
same,Antibacterial activity (MIC) after incubating peptide at 60 °C,[4],8.6 µM
same,Antibacterial activity (MIC) after incubating peptide at 90 °C,[4],12.3 µM
same,Antibacterial activity (MIC) in the presence of 10% FBS,[5],8.6 µM
same,Antibacterial activity (MIC) in the presence of FeCl3,[5],4.1 µM
same,Antibacterial activity (MIC) in the presence of KCl,[5],4.3 µM
same,Antibacterial activity (MIC) in the presence of MgCl2,[5],4.3 µM
same,Antibacterial activity (MIC) in the presence of NH4Cl,[5],2.0 µM
same,Antibacterial activity (MIC) in the presence of NaCl,[5],8.6 µM
same,MIC,[6],6.8 µM
same,MIC,[7],13.6 µM
same,MIC,[8],13.6 µM
same,survival of mice (in vivo cytotoxicity),[9],100%
same,"LPS-induced production of TNF-α, IL-6 and IFN-γ in serum",[10],significant reduction
same,MIC,[11],6.8 µM
same,MIC,[12],27.2 µM
same,interaction of peptide with chloramphenicol (by FICI),[13],synergy (FICI < 0.5 is considered to indicate synergy)
